{"source": "ChEMBL document CHEMBL1201862", "about": "“PubChem BioAssay data set” (2004)", "assay_in_all_cases": "growth of human tumour cells (NCI), 48 h", "key": {"[1]": {"system": "786-0"}, "[2]": {"system": "A498"}, "[3]": {"system": "A549"}, "[4]": {"system": "ACHN"}, "[5]": {"system": "CAKI-1"}, "[6]": {"system": "HCT-15"}, "[7]": {"system": "HL-60"}, "[8]": {"system": "HOP-92"}, "[9]": {"system": "Hs-578T"}, "[10]": {"system": "MDA-MB-435"}, "[11]": {"system": "MDA-N"}, "[12]": {"system": "MOLT-4"}, "[13]": {"system": "Malme-3M"}, "[14]": {"system": "NCI-H226"}, "[15]": {"system": "NCI-H23"}, "[16]": {"system": "NCI-H522"}, "[17]": {"system": "NCI/ADR-RES"}, "[18]": {"system": "OVCAR-3"}, "[19]": {"system": "OVCAR-4"}, "[20]": {"system": "OVCAR-5"}, "[21]": {"system": "PC-3"}, "[22]": {"system": "SF-268"}, "[23]": {"system": "SF-295"}, "[24]": {"system": "SF-539"}, "[25]": {"system": "SK-MEL-28"}, "[26]": {"system": "SK-MEL-2"}, "[27]": {"system": "SK-MEL-5"}, "[28]": {"system": "SK-OV-3"}, "[29]": {"system": "SNB-19"}, "[30]": {"system": "SW-620"}, "[31]": {"system": "T47D"}, "[32]": {"system": "TK-10"}, "[33]": {"system": "UACC-257"}, "[34]": {"system": "COLO 205"}, "[35]": {"system": "DU-145"}, "[36]": {"system": "HCC 2998"}, "[37]": {"system": "HCT-116"}, "[38]": {"system": "HOP-62"}, "[39]": {"system": "HT-29"}, "[40]": {"system": "IGROV-1"}, "[41]": {"system": "K562"}, "[42]": {"system": "LOX IMVI"}, "[43]": {"system": "M14"}, "[44]": {"system": "MDA-MB-231"}, "[45]": {"system": "NCI-H460"}, "[46]": {"system": "OVCAR-8"}, "[47]": {"system": "RPMI-8226"}, "[48]": {"system": "SN12C"}, "[49]": {"system": "SNB-75"}, "[50]": {"system": "SR"}, "[51]": {"system": "U-251"}, "[52]": {"system": "UO-31"}}, "note": "“And” between values parts separate entries of the source, which are not always exact repeats. Equal values may be shown once.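 Compound exposure: 48 hours, 5 concentrations, 96-well plates. The concentration for 50% growth inhibition is given as GI50.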 The source made the active and inactive calls. Cut-off read from the data, not from the text of the source: active = GI50 up to about 1.1 µM and inactive = higher.", "data": [{"smiles": "CN(C)c1ccc(/C=C/c2sc3ccccc3[n+]2C)cc1", "values": [{"measurement": "GI50", "setting": "[1]", "result": "1.82 µM (inactive) and 1.61 µM (inactive)"}, {"measurement": "GI50", "setting": "[2]", "result": "14.9 µM (inactive) and 12.6 µM (inactive)"}, {"measurement": "GI50", "setting": "[3]", "result": "2.2 µM (inactive) and 3.82 µM (inactive)"}, {"measurement": "GI50", "setting": "[4]", "result": "1.46 µM (inactive) and 2.2 µM (inactive)"}, {"measurement": "GI50", "setting": "[5]", "result": "2.52 µM (inactive) and 3.33 µM (inactive)"}, {"measurement": "GI50", "setting": "[6]", "result": "4.75 µM and 9.27 µM"}, {"measurement": "GI50", "setting": "[7]", "result": "180 nM (active) and 348 nM (active)"}, {"measurement": "GI50", "setting": "[8]", "result": "3.65 µM (inactive) and 1.85 µM (inactive)"}, {"measurement": "GI50", "setting": "[9]", "result": "4 µM (inactive) and 7.62 µM (inactive)"}, {"measurement": "GI50", "setting": "[10]", "result": "813 nM (active) and 879 nM (active)"}, {"measurement": "GI50", "setting": "[11]", "result": "1.16 µM (inactive)"}, {"measurement": "GI50", "setting": "[12]", "result": "270 nM (active) and 238 nM (active)"}, {"measurement": "GI50", "setting": "[13]", "result": "1.54 µM (inactive) and 1.96 µM (inactive)"}, {"measurement": "GI50", "setting": "[14]", "result": "3.71 µM (inactive) and 2.62 µM (inactive)"}, {"measurement": "GI50", "setting": "[15]", "result": "1.07 µM (active) and 743 nM (active)"}, {"measurement": "GI50", "setting": "[16]", "result": "1.93 µM (inactive) and 1.58 µM (inactive)"}, {"measurement": "GI50", "setting": "[17]", "result": "36.9 µM (inactive) and > 57 µM (inactive)"}, {"measurement": "GI50", "setting": "[18]", "result": "550 nM (active) and 501 nM (active)"}, {"measurement": "GI50", "setting": "[19]", "result": "2.62 µM (inactive) and 2.71 µM (inactive)"}, {"measurement": "GI50", "setting": "[20]", "result": "12.7 µM (inactive) and 10.3 µM (inactive)"}, {"measurement": "GI50", "setting": "[21]", "result": "1.09 µM (active) and 838 nM (active)"}, {"measurement": "GI50", "setting": "[22]", "result": "3.29 µM (inactive) and 3.4 µM (inactive)"}, {"measurement": "GI50", "setting": "[23]", "result": "3.29 µM (inactive) and 6.35 µM (inactive)"}, {"measurement": "GI50", "setting": "[24]", "result": "3.18 µM (inactive) and 4.18 µM (inactive)"}, {"measurement": "GI50", "setting": "[25]", "result": "1.85 µM (inactive) and 3.44 µM (inactive)"}, {"measurement": "GI50", "setting": "[26]", "result": "2.82 µM (inactive) and 2.29 µM (inactive)"}, {"measurement": "GI50", "setting": "[27]", "result": "1.09 µM (active) and 1.7 µM (inactive)"}, {"measurement": "GI50", "setting": "[28]", "result": "4.56 µM (inactive)"}, {"measurement": "GI50", "setting": "[29]", "result": "2.09 µM (inactive) and 1.99 µM (inactive)"}, {"measurement": "GI50", "setting": "[30]", "result": "433 nM (active) and 427 nM (active)"}, {"measurement": "GI50", "setting": "[31]", "result": "2.47 µM (inactive) and 4.05 µM (inactive)"}, {"measurement": "GI50", "setting": "[32]", "result": "5.65 µM (inactive) and 3.37 µM (inactive)"}, {"measurement": "GI50", "setting": "[33]", "result": "1.82 µM (inactive) and 1.6 µM (inactive)"}]}, {"smiles": "COP(=O)(OC)/C(=C\\C1=CN(C(c2ccccc2)(c2ccccc2)c2ccccc2)CN1)NC=O", "values": [{"measurement": "GI50", "setting": "[2]", "result": "17.9 µM (inactive)"}, {"measurement": "GI50", "setting": "[3]", "result": "14.2 µM (inactive)"}, {"measurement": "GI50", "setting": "[4]", "result": "15.1 µM (inactive)"}, {"measurement": "GI50", "setting": "[5]", "result": "16.6 µM (inactive)"}, {"measurement": "GI50", "setting": "[34]", "result": "17.3 µM (inactive)"}, {"measurement": "GI50", "setting": "[35]", "result": "20.2 µM (inactive)"}, {"measurement": "GI50", "setting": "[36]", "result": "21.1 µM (inactive)"}, {"measurement": "GI50", "setting": "[37]", "result": "15.6 µM (inactive)"}, {"measurement": "GI50", "setting": "[6]", "result": 16.6, "unit": "µM"}, {"measurement": "GI50", "setting": "[7]", "result": "18.9 µM (inactive)"}, {"measurement": "GI50", "setting": "[38]", "result": "16.5 µM (inactive)"}, {"measurement": "GI50", "setting": "[8]", "result": "10.3 µM (inactive)"}, {"measurement": "GI50", "setting": "[39]", "result": "15 µM (inactive)"}, {"measurement": "GI50", "setting": "[9]", "result": "23.3 µM (inactive)"}, {"measurement": "GI50", "setting": "[40]", "result": "20.6 µM (inactive)"}, {"measurement": "GI50", "setting": "[41]", "result": "25.3 µM (inactive)"}, {"measurement": "GI50", "setting": "[42]", "result": "12.8 µM (inactive)"}, {"measurement": "GI50", "setting": "[43]", "result": "19.9 µM (inactive)"}, {"measurement": "GI50", "setting": "[44]", "result": "16.8 µM (inactive)"}, {"measurement": "GI50", "setting": "[10]", "result": "11.1 µM (inactive)"}, {"measurement": "GI50", "setting": "[11]", "result": "15.1 µM (inactive)"}, {"measurement": "GI50", "setting": "[12]", "result": "12.8 µM (inactive)"}, {"measurement": "GI50", "setting": "[14]", "result": "21.2 µM (inactive)"}, {"measurement": "GI50", "setting": "[15]", "result": "18.2 µM (inactive)"}, {"measurement": "GI50", "setting": "[45]", "result": "14 µM (inactive)"}, {"measurement": "GI50", "setting": "[16]", "result": "17 µM (inactive)"}, {"measurement": "GI50", "setting": "[17]", "result": "15.8 µM (inactive)"}, {"measurement": "GI50", "setting": "[18]", "result": "16.1 µM (inactive)"}, {"measurement": "GI50", "setting": "[19]", "result": "16.3 µM (inactive)"}, {"measurement": "GI50", "setting": "[20]", "result": "17.8 µM (inactive)"}, {"measurement": "GI50", "setting": "[46]", "result": "21.3 µM (inactive)"}, {"measurement": "GI50", "setting": "[21]", "result": "6.44 µM (inactive)"}, {"measurement": "GI50", "setting": "[47]", "result": "15.7 µM (inactive)"}, {"measurement": "GI50", "setting": "[23]", "result": "16.4 µM (inactive)"}, {"measurement": "GI50", "setting": "[25]", "result": "17.7 µM (inactive)"}, {"measurement": "GI50", "setting": "[26]", "result": "15.9 µM (inactive)"}, {"measurement": "GI50", "setting": "[27]", "result": "15.9 µM (inactive)"}, {"measurement": "GI50", "setting": "[28]", "result": "15.9 µM (inactive)"}, {"measurement": "GI50", "setting": "[48]", "result": "18.3 µM (inactive)"}, {"measurement": "GI50", "setting": "[29]", "result": "20.1 µM (inactive)"}, {"measurement": "GI50", "setting": "[49]", "result": "20.2 µM (inactive)"}, {"measurement": "GI50", "setting": "[50]", "result": "14.2 µM (inactive)"}, {"measurement": "GI50", "setting": "[30]", "result": "20.4 µM (inactive)"}, {"measurement": "GI50", "setting": "[31]", "result": "17.6 µM (inactive)"}, {"measurement": "GI50", "setting": "[32]", "result": "21.2 µM (inactive)"}, {"measurement": "GI50", "setting": "[51]", "result": "16.3 µM (inactive)"}, {"measurement": "GI50", "setting": "[33]", "result": "18.9 µM (inactive)"}, {"measurement": "GI50", "setting": "[52]", "result": "15 µM (inactive)"}]}]}
